Experiments:
[1] = biological target: T1, Tyrosyl-DNA phosphodiesterase 2 (Homo sapiens, UniProt O95551); experiment: Inhibition of human N-terminal His-tagged TDP2 expressed in Escherichia coli JM109(DE3) using 5'-Y-TCCGTTGAAGCCTGCTTT-3' as substrate incubated for 60 mins by microplate reader analysis
T1 sequence (O95551 whole entry): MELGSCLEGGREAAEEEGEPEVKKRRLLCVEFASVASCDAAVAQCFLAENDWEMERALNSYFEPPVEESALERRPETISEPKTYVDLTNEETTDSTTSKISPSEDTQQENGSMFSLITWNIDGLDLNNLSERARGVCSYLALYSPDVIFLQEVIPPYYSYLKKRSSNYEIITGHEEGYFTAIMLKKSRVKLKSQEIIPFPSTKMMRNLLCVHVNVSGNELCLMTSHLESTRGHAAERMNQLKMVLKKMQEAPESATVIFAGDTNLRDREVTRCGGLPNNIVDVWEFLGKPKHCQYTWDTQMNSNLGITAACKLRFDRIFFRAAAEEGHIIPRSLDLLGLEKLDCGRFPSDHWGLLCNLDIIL

[2] = Non-competitive inhibition of human 7721 cell membrane-derived phospholipase D using phosphatidylcholine as substrate preincubated for 10 mins followed by substrate addition in presence of PIP2 by Cornish-Bowden plot analysis
[3] = biological target: T2, Tyrosyl-DNA phosphodiesterase 1 (Homo sapiens, UniProt Q9NUW8); experiment: Inhibition of recombinant TDP1 (unknown origin) using 5'-32P-labeled N14Y DNA substrate incubated for 15 mins by PAGE analysis
[4] = biological target: T1, Tyrosyl-DNA phosphodiesterase 2; experiment: Inhibition of human recombinant TDP2 using 18-mer single stranded 5'-32P-labeled cordycepin DNA substrate incubated for 15 mins by PAGE analysis
[5] = biological target: T1, Tyrosyl-DNA phosphodiesterase 2; experiment: Inhibition of TDP2 (unknown origin)
[6] = biological target: T2, Tyrosyl-DNA phosphodiesterase 1; experiment: Inhibition of N-terminal His-tagged TDP1 (unknown origin) expressed in Escherichia coli BL21(DE3) using 5'-6-FAM-AGGATCTAAAAGACTT-3BHQ-3' as substrate preincubated for 30 mins followed by substrate addition by fluorescence assay
MCF7 = experiment: Growth inhibition of human MCF7 cells at 10 uM after 96 hrs in presence of camptothecin by MTT assay relative to camptothecin alone; format: functional; settings: MCF7, 96 h, read-out: GI
DNA topoisomerase 1 = biological target: T3, DNA topoisomerase 1 (Homo sapiens, UniProt P11387); experiment: Inhibition of topoisomerase-1 (unknown origin) using pBR 322 DNA as substrate
T3 sequence (P11387 whole entry): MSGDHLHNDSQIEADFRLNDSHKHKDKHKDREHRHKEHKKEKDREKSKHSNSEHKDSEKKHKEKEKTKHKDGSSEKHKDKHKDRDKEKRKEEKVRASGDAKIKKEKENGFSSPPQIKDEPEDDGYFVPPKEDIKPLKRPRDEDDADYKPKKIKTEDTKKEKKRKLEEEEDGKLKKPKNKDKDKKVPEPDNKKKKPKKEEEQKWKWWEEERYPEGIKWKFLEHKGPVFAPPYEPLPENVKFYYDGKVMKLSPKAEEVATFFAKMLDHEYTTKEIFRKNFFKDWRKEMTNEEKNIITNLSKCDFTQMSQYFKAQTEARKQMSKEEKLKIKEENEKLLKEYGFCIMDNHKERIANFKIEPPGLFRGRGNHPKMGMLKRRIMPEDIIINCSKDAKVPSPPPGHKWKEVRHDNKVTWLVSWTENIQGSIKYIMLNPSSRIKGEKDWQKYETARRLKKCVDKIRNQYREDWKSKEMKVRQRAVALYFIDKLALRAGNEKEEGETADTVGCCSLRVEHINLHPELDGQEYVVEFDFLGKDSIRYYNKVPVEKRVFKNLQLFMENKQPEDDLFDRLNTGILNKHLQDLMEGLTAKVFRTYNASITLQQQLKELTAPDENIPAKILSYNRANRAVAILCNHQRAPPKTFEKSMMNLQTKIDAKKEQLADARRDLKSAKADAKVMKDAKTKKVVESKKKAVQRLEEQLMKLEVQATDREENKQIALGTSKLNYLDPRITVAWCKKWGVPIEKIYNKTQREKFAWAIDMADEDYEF

[7] = biological target: T2, Tyrosyl-DNA phosphodiesterase 1; experiment: Inhibition of human N-terminal His-tagged TDP1 expressed in Escherichia coli BL21 using [32P]-D14Y duplex DNA as substrate incubated for 20 mins by PAGE analysis
[8] = Inhibition of human Jurkat cell membrane-derived protein tyrosine phosphatase using o-phospho-L-tyrosine as substrate incubated for 15 mins by malachite green staining based assay
[9] = biological target: T2, Tyrosyl-DNA phosphodiesterase 1; experiment: Inhibition of TDP1 (unknown origin) using 14-mer duplex oligonucleotide [32P]-D14Y as substrate incubated for 20 mins by PAGE analysis
[10] = biological target: T2, Tyrosyl-DNA phosphodiesterase 1; experiment: Inhibition of recombinant TDP1 (unknown origin) using 5'-32P-labeled N14Y DNA substrate incubated for 20 mins by PAGE analysis

T2 sequence (Q9NUW8 whole entry): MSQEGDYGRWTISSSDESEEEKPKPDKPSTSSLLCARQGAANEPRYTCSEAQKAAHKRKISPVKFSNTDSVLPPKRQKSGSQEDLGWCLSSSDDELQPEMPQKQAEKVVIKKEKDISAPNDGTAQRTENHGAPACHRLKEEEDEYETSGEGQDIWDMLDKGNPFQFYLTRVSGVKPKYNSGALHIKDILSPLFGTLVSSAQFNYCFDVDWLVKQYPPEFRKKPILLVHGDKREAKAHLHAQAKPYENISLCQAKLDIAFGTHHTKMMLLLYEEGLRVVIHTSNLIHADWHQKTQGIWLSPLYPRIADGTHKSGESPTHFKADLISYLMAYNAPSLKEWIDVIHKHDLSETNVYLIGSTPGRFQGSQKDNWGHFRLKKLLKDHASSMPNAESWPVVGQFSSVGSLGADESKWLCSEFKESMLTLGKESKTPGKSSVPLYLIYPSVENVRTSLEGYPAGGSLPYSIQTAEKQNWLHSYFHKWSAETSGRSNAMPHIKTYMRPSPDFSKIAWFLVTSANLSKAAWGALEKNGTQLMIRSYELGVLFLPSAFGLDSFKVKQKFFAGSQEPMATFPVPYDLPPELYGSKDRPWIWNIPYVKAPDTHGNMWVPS

Structure (SMILES): Cc1cc2nc3c(=O)[nH]c(=O)nc-3n(C)c2cc1C=O
- EC50 [1]: 3.5 µM

Structure (SMILES): NCC1O[C@H](O[C@H]2[C@@H](O)[C@H](O[C@@H]3[C@@H](O)[C@H](N)C[C@H](N)[C@H]3O[C@H]3O[C@H](CN)[C@@H](O)[C@H](O)[C@H]3N)O[C@@H]2CO)[C@H](N)[C@@H](O)[C@@H]1O (some centres undefined)
- Ki [2]: 8.7 mM

Structure (SMILES): COc1ccc2c(c1)Oc1nc(-c3ccc(C)cc3)nc(SCC(=O)Nc3ccc(C(=O)O)cc3)c1C2
- IC50 [3]: 12.1 µM

Structure (SMILES): CCn1cc(C(=O)O)c(=O)c2cc(F)c(N3CCN(CNc4ccc(S(=O)(=O)Nc5nc(C)cc(C)n5)cc4)CC3)cc21
- IC50 [3]: 0.005 µM

Structure (SMILES): O=C(O)c1ccc(-c2ccc(/C=C3/NC(=O)N(Cc4ccccc4F)C3=O)o2)cc1
- IC50 [4]: 32 µM
- IC50 [3]: 7.7 µM

Structure (SMILES): NC1=CC(N)=C2C=CC(=O)N=C2C1=O
- IC50 [5]: 2000 nM

Structure (SMILES): O=C1NC(=S)NC(=O)C1=Cc1ccco1
- IC50 [6]: 710 nM
- inhibition of growth at 10 µM (MCF7): 25%

Structure (SMILES): O=C1c2c(c3c4cccc(O)c4n([C@@H]4O[C@H](CO)[C@@H](O)[C@H](O)[C@H]4O)c3c3[nH]c4c(O)cccc4c23)C(=O)N1NC(CO)CO
- EC50 (DNA topoisomerase 1): 580 nM

Structure (SMILES): COc1c(N2CCN(CNc3ccc(S(=O)(=O)Nc4nc(C)cc(C)n4)cc3)C(C)C2)c(F)cc2c(=O)c(C(=O)O)cn(C3CC3)c12 (centres undefined)
- IC50 [3]: 0.022 µM

Structure (SMILES): CCC[C@@H]1C[C@@H](C(=O)N[C@@H]([C@H]2O[C@H](SC)[C@H](OP(=O)(O)O)[C@@H](O)[C@H]2O)[C@H](C)Cl)N(C)C1 [CLINDAMYCIN PHOSPHATE]
- IC50 [7]: 9.1 mM

Structure (SMILES): CN(N=O)c1cc(O)ccc1O [DEPHOSTATIN]
- IC50 [8]: 7.7 µM

Structure (SMILES): NC[C@@H]1O[C@H](O[C@H]2[C@@H](O)[C@H](O[C@@H]3[C@@H](O)[C@H](N)C[C@H](N)[C@H]3O[C@H]3O[C@H](CO)[C@@H](O)C[C@H]3N)O[C@@H]2CO)[C@H](N)[C@@H](O)[C@@H]1O[C@H]1O[C@H](CO)[C@@H](O)[C@H](O)[C@@H]1O [LIVIDOMYCIN]
- IC50 [9]: 30 mM

Structure (SMILES): CCN[C@@H]1C[C@H](N)[C@@H](O[C@H]2OC(CN)=CC[C@H]2N)[C@H](O)[C@H]1O[C@H]1OC[C@](C)(O)[C@H](NC)[C@H]1O [NETILMICIN]
- IC50 [9]: 8 mM

Structure (SMILES): COc1ccc(C[C@H](N)C(=O)N[C@H]2[C@@H](O)[C@H](n3cnc4c(N(C)C)ncnc43)O[C@@H]2CO)cc1 [PUROMYCIN]
- IC50 [7]: 18 mM

Structure (SMILES): Cc1ccc(C(=O)Nc2ccc(S(=O)(=O)O)c3cc(S(=O)(=O)O)cc(S(=O)(=O)O)c23)cc1NC(=O)c1cccc(NC(=O)Nc2cccc(C(=O)Nc3cc(C(=O)Nc4ccc(S(=O)(=O)O)c5cc(S(=O)(=O)O)cc(S(=O)(=O)O)c45)ccc3C)c2)c1 [SURAMIN]
- EC50 [1]: 24 µM
- IC50 [10]: 5 µM

Structure (SMILES): C=C(NC(=O)C(=C)NC(=O)c1csc(C2=N[C@@H]3c4csc(n4)[C@H]4NC(=O)c5csc(n5)[C@H]([C@](C)(O)[C@@H](C)O)NC(=O)[C@H]5CSC(=N5)/C(=C/C)NC(=O)[C@H]([C@@H](C)O)NC(=O)c5csc(n5)[C@]3(CC2)NC(=O)[C@H](C)NC(=O)C(=C)NC(=O)[C@H](C)NC(=O)[C@H]([C@@H](C)CC)N[C@@H]2C=Cc3c([C@H](C)O)cc(nc3[C@H]2O)C(=O)O[C@@H]4C)n1)C(N)=O [THIOSTREPTON]
- IC50 [7]: 1.8 mM
